# Results as given in ChEMBL document CHEMBL4616668, “Discovery of a High Affinity, Orally Bioavailable Macrocyclic FXIa Inhibitor with Antithrombotic Activity in Preclinical Species” (J Med Chem, 2020).
# Columns and labels:
# [1] = Half life in dog liver microsomes; assay type: ADME, Canis lupus familiaris, Microsome
# [2] = Half life in human liver microsomes; assay type: ADME, Microsome
# [3] = Half life in rat liver microsomes; assay type: ADME, Microsome
# [4] = Oral bioavailability in Sprague-Dawley rat at […]; assay type: ADME, organism-based; settings: in vivo
# Coagulation factor XI = Coagulation factor XI (Homo sapiens, UniProt P03951); assay: Inhibition of human factor11a using pyro-Glu-Pro-Arg-pNA(para-nitroaniline) substrate by spectrophotometry
# Chain of Coagulation factor XI (P03951 19-387 limits assumed): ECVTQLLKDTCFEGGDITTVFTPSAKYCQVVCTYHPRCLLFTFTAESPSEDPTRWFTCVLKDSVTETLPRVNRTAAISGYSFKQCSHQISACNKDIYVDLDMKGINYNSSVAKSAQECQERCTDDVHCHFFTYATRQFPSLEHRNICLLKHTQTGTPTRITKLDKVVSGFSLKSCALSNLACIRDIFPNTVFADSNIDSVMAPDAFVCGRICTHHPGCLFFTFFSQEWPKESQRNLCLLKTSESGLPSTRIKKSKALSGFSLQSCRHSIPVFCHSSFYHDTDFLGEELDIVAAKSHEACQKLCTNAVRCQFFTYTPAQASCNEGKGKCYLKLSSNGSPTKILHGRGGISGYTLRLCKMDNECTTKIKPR
# Chain of Coagulation factor XI (P03951 388-625 limits assumed): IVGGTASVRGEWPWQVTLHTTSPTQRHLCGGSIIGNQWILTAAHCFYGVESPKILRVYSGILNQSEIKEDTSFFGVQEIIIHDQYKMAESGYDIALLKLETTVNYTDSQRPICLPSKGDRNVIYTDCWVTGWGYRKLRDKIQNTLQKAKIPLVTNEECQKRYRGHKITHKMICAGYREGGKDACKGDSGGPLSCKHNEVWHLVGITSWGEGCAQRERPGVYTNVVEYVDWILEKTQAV
# [5] = Half life in cynomolgus monkey liver microsomes; assay type: ADME, Macaca fascicularis, Microsome
# [6] = Clearance in Sprague-Dawley rat at 0.6 mg/kg, iv; assay type: ADME, organism-based; settings: in vivo
# Plasma [7] = assay: Anticoagulant activity in human plasma assessed as activated partial thromboplastin time; assay type: functional
# Plasma [8] = assay: Anticoagulant activity in rabbit plasma assessed as activated partial thromboplastin time; assay type: functional, Oryctolagus cuniculus
# [9] = Oral bioavailability in Beagle dog at 1.1 mg/kg; assay type: ADME, organism-based, Canis lupus familiaris; settings: in vivo
# [10] = Clearance in cynomolgus monkey at 0.5 mg/kg, iv; assay type: ADME, organism-based, Macaca fascicularis; settings: in vivo
# [11] = AUC in Sprague-Dawley rat at 0.6 mg/kg, iv; assay type: ADME, organism-based; settings: in vivo
# [12] = AUC in Sprague-Dawley rat at […], po; assay type: ADME, organism-based; settings: in vivo
# [13] = AUC in cynomolgus monkey at 0.5 mg/kg, iv; assay type: ADME, organism-based, Macaca fascicularis; settings: in vivo
# [14] = Clearance in Beagle dog at 0.4 mg/kg, iv; assay type: ADME, organism-based, Canis lupus familiaris; settings: in vivo
# [15] = Terminal half life in Beagle dog at 0.4 mg/kg, iv; assay type: ADME, organism-based, Canis lupus familiaris; settings: in vivo, read-out: beta t1/2 (converted)
# [16] = Terminal half life in cynomolgus monkey at 0.5 mg/kg, iv; assay type: ADME, organism-based, Macaca fascicularis; settings: in vivo, read-out: beta t1/2 (converted)
# [17] = Apparent volume of distribution at steady-state in Beagle dog at 0.4 mg/kg, iv; assay type: ADME, organism-based, Canis lupus familiaris; settings: in vivo, read-out: Vdss(app)
# [18] = Apparent volume of distribution at steady-state in Sprague-Dawley rat at 0.6 mg/kg, iv; assay type: ADME, organism-based; settings: in vivo, read-out: Vdss(app)
# [19] = AUC in cynomolgus monkey at 1.5 mg/kg, po; assay type: ADME, organism-based, Macaca fascicularis; settings: in vivo
# [20] = AUC in Beagle dog at 0.4 mg/kg, iv; assay type: ADME, organism-based, Canis lupus familiaris; settings: in vivo
# [21] = Permeability form apical to basolateral side in human Caco2 cells; assay type: ADME, cell-based; settings: Caco-2, read-out: permeability
# [22] = Permeability form basolateral to apical side in human Caco2 cells; assay type: ADME, cell-based; settings: Caco-2, read-out: permeability
# [23] = Terminal half life in Sprague-Dawley rat at 0.6 mg/kg, iv; assay type: ADME, organism-based; settings: in vivo, read-out: beta t1/2 (converted)
# [24] = Apparent volume of distribution at steady-state in cynomolgus monkey at 0.5 mg/kg, iv; assay type: ADME, organism-based, Macaca fascicularis; settings: in vivo, read-out: Vdss(app)
# [25] = AUC in Beagle dog at 1.1 mg/kg, po; assay type: ADME, organism-based, Canis lupus familiaris; settings: in vivo
# [26] = Oral bioavailability in cynomolgus monkey at 1.5 mg/kg; assay type: ADME, organism-based, Macaca fascicularis; settings: in vivo
# [27] = Toxicity in New Zealand White rabbit model of cuticle bleeding time assessed as increase in cuticle bleeding time at 4 mg/kg/hr dosed as continuous intravenous infusion 30 to 60 mins prior to cuticle transection relative to control; assay type: organism-based, Oryctolagus cuniculus; settings: in vivo
Structure (SMILES),half-life [1],half-life [2],half-life [3],Ki (Coagulation factor XI),half-life [5],EC1.5 (Plasma [7]),further results
COC(=O)Nc1ccc2c(c1)NC(=O)[C@H](C)CCC[C@H](N1CC[C@H](c3c(F)ccc(Cl)c3F)OC1=O)c1cc-2ccn1,27 min,56 min,35 min,0.6 nM,12 min,0.5 µM,bioavailability [4]: 37%; clearance [6]: 23 mL/min/kg
COC(=O)Nc1ccc2c(c1)NC(=O)[C@H](C)CCC[C@H](N1CCN(c3c(F)ccc(Cl)c3F)C(=O)C1=O)c1cc-2ccn1,64 min,76 min,60 min,14 nM,80 min,4.3 µM,
COC(=O)Nc1ccc2c(c1)NC(=O)[C@H](C)CCC[C@H](N1CC[C@H](c3c(F)ccc(Cl)c3F)OC1=O)c1ccnc-2c1,44 min,36 min,29 min,1.6 nM,9 min,0.5 µM,bioavailability [4]: 48%; clearance [6]: 33 mL/min/kg
COC(=O)Nc1ccc2c(c1)NC(=O)[C@H](C)CCC[C@H](N1CCC(c3c(F)ccc(Cl)c3F)=CC1=O)c1cc-2ccn1.O=C(O)C(F)(F)F,,,,,,,EC1.5 (Plasma [8]): 26 µM
COC(=O)Nc1ccc2c(c1)NC(=O)[C@H](C)CCC[C@H](N1CC[C@H](c3c(F)ccc(Cl)c3F)OC1=O)c1cncc-2c1,21 min,17 min,9 min,1.8 nM,2 min,0.6 µM,
COC(=O)Nc1ccc2c(c1)NC(=O)[C@H](C)CCC[C@H](N1CC[C@H](c3c(F)ccc(Cl)c3F)OC1=O)c1ncc-2[nH]1,38 min,55 min,48 min,0.7 nM,17 min,0.6 µM,bioavailability [9]: 57%; clearance [10]: 56 mL/min/kg; AUC [11]: 0.52 µM·h; AUC [12]: 0.687 µM·h; AUC [13]: 0.233 µM·h; clearance [14]: 38 mL/min/kg; half-life [15]: 114 min; half-life [16]: 84 min; bioavailability [4]: 54%; Vd [17]: 5.1 L/kg; Vd [18]: 3.2 L/kg; AUC [19]: 0.263 µM·h; clearance [6]: 33 mL/min/kg; AUC [20]: 0.285 µM·h; Papp A→B [21]: 3.8 ×10⁻⁶ cm/s; Papp B→A [22]: 23.8 ×10⁻⁶ cm/s; half-life [23]: 84 min; Vd [24]: 9.2 L/kg; AUC [25]: 0.446 µM·h; bioavailability [26]: 29%
COC(=O)Nc1ccc2c(c1)NC(=O)[C@H](C)CCC[C@H](N1CCN(c3c(F)ccc(Cl)c3F)CC1=O)c1cc-2ccn1,6 min,4 min,9 min,4.5 nM,1 min,4.6 µM,
COC(=O)Nc1ccc2c(c1)NC(=O)[C@H](C)CCC[C@H](N1CC[C@H](c3c(F)ccc(Cl)c3F)OC1=O)c1cc-2cnc1F,15 min,9 min,6 min,2.7 nM,,1.2 µM,
COC(=O)Nc1ccc2c(c1)NC(=O)[C@H](C)CCC[C@H](N1CCC(c3c(F)ccc(Cl)c3F)CC1=O)c1cc-2ccn1 (mixture of isomers),13 min,8 min,15 min,0.9 nM,3 min,2.8 µM,
COC(=O)Nc1ccc2c(c1)NC(=O)[C@H](C)CCC[C@H](N1CCC(c3c(F)ccc(Cl)c3F)NC1=O)c1cc-2ccn1 (stereo partly specified),27 min,17 min,40 min,0.5 nM,2 min,7.5 µM,
COC(=O)Nc1ccc2c(c1)NC(=O)[C@H](C)CCC[C@H](N1CCC(c3c(F)ccc(Cl)c3F)=CC1=O)c1cc-2ccn1,,,,,,1.8 µM,
COC(=O)Nc1ccc2c(c1)NC(=O)[C@H](C)CCC[C@H](N1CC(=O)N(c3c(F)ccc(Cl)c3F)CC1=O)c1cc-2ccn1,72 min,75 min,55 min,4.9 nM,27 min,1.4 µM,
CC(=O)Oc1ccccc1C(=O)O [ASPIRIN],,,,,,,fold change (FC) [27]: 2.3
